Tests used:
Set-up in all cases: key: “+” indicates that the compound exibits inhibitory activity; “−” indicates that low or no inhibitory activity was observed
[1] = target: E3 (His-APC11/APC2-"APC") (Homo sapiens, UniProt Q9NYG5+Q9UJX6); experiment: Plate-based E3 ligase assay (APC FLAG), auto-ubiquitination; type: biochemical; conditions: for APC Flag 8 pt: 8 concentrations tested; for APC Flag (2 pt): 2 concentrations tested
Method in brief: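 His-APC11/APC2 auto-ubiquitination was run in casein-blocked nickel plates for 1 h at room temperature, with E1 at 5 ng/well, UbcH5c at 20 ng/well and APC at 100 ng/well. Buffer was 62.5 mM Tris pH 7.6, 3 mM MgCl2, 1 mM DTT, 2.5 mM ATP and Flag-ubiquitin at 100 ng/well. Detection used anti-Flag/HRP chemiluminescence, and IC50 was typically from 6 or 8 concentrations versus a DMSO control.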

HeLa cells [2] = experiment: Non-photographic proliferation analysis (Promega Cell titer Aqueous), HeLa; type: cell-based; conditions: 6 concentrations tested
Method: (§1) A549 (ATCC# CCL-185), HeLa (ATCC# CCL-2), HCT116 (ATCC# CCL-247), and H1299 (ATCC# CRL-5803) cells were maintained in T175 flasks following the ATCC recommended media and handling procedures. Flasks reaching approximately 70% confluency were trypsinized and resuspended in RPMI media (Cell-Gro catalog number 10-040-CM) modified to contain 5% FBS, 100 ug/mlPen/Strep (Cell-Gro catalog number 30-002-CL), and 0.3 mg/ml L-Glutamine (Cell-Gro catalog number 25-003-CL). A 20,000 cells/ml solution was made for plating. Cells were plated in black Packard 96 well plates by placing 100 μl per well (2,000 cells per well).
(§2) Compounds and additional media were added 24 hours after cell plating. A compound master plate was created with concentrations 500 times greater than the final concentration added to the cells. All compound testing was done in duplicate using 6.3 fold dilutions starting with 10 mM. All outside wells (and 4 internal wells) were DMSO controls. Taxol and at least one additional control were run on all plates. Three microliters of the compound master plate were added to deep well blocks containing 750 μl of RPMI media. One hundred microliters were transferred from the compound/media deep well blocks to the plated cells resulting in a 500 fold dilution of the compounds. Cells were grown at 37° C., 5% CO2 for 48 hours.
(§3) Some cell plates were treated with Promega Cell titer Aqueous 1 kit (promega—VWR catalog number G3580). In this case, 48 hours after the test compound were added, 100 μl of media were removed and 20 μl of cell titer reagent were added to all wells. Plates were incubated at 37° C. for 45 minutes prior to absorbance reads on the Wallac plate reader at 490 nm for 0.1 sec/well.

A549 cells [3] = experiment: Non-photographic proliferation analysis (Promega Cell titer Aqueous), A549; type: cell-based; conditions: 6 concentrations tested
Method: as §1, §2, §3

HeLa cells [4] = experiment: Cell proliferation assay, photographic image analysis of proliferation, apoptosis and death (PAD assay), HeLa; type: cell-based; conditions: 6 concentrations tested
Method in brief: (§4)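 Cells grown in RPMI with 5% FBS (2,000/well) and dosed 24 h after plating with 6.3-fold dilutions in duplicate (master plate 500× final, top 10 mM stock). After 48 h at 37 °C, cells formamide-fixed and DAPI-stained. Image analysis counted live, apoptotic and dead cells.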

A549 cells [5] = experiment: Cell proliferation assay, photographic image analysis of proliferation, apoptosis and death (PAD assay), A549; type: cell-based; conditions: 6 concentrations tested
Method in brief: as §4

Sequence of E3 (His-APC11/APC2-"APC") (Q9NYG5 whole entry): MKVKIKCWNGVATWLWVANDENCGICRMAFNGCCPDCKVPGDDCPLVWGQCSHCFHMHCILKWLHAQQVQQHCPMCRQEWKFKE
Sequence of E3 (His-APC11/APC2-"APC") (Q9UJX6 whole entry): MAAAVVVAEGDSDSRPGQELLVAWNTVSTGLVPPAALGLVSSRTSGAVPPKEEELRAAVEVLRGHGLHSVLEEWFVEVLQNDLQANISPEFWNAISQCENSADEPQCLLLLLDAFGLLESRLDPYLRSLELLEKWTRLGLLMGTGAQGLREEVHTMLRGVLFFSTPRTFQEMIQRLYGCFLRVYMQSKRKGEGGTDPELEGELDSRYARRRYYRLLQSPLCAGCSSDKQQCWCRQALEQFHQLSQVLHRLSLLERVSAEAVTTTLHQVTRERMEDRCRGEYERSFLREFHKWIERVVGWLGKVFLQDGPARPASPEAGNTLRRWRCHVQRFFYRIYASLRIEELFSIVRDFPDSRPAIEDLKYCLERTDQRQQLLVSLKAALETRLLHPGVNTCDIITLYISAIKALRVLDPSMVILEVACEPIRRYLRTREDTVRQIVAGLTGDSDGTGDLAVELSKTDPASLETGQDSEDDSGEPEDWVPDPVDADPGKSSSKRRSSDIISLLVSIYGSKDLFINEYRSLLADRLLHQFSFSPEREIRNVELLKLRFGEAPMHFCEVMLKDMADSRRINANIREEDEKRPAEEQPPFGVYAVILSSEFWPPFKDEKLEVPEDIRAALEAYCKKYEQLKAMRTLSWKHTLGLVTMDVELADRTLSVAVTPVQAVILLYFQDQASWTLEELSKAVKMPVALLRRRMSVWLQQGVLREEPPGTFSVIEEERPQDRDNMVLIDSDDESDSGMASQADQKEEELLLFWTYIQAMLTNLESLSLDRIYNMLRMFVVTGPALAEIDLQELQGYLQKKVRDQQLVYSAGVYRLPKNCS

Row | APC Flag 8 pt [1] | APC Flag (2 pt) [1] | Compound | Cell Titer-Aqueous, HELA 6 pt (HeLa cells [2]) | Cell Titer-Aqueous, A549 6 pt (A549 cells [3]) | PAD Assay, HELA 6 pt (HeLa cells [4]) | PAD Assay, A549 6 pt (A549 cells [5])
1 | + |  | O=[N+]([O-])c1ccc(Oc2c(Cl)cc(S(=O)(=O)NC(=S)Nc3ccc(Cl)c(Cl)c3)cc2Cl)c(Cl)c1 [Compound 148, 3,5-dichloro-4-(2-chloro-4-nitrophenoxy)-N-{[(3,4-dichlorophenyl)amino]carbothioyl}benzenesulfonamide] | − | − |  | 
2 |  | − (2 pt) | CS(=O)(=O)c1cccc(NS(=O)(=O)c2cc(Cl)c(Oc3ccc([N+](=O)[O-])cc3Cl)c(Cl)c2)c1 [Compound 173, 3,5-dichloro-4-(2-chloro-4-nitrophenoxy)-N-[3-(methylsulfonyl)phenyl]benzenesulfonamide] | − | − | − | −
3 | − |  | COc1ccc(NS(=O)(=O)c2cc(Cl)c(Oc3ccc([N+](=O)[O-])cc3Cl)c(Cl)c2)cc1 [Compound 208] | + | + | + | +
4 | + |  | O=[N+]([O-])c1ccc(Oc2c(Cl)cc(S(=O)(=O)Nc3ccccc3I)cc2Cl)c(Cl)c1 [Compound 209] | + | + | + | +
5 | + |  | O=[N+]([O-])c1ccc(Oc2c(Cl)cc(S(=O)(=O)Nc3ccccc3Cl)cc2Cl)c(Cl)c1 [Example 156, 3,5-dichloro-4-(2-chloro-4-nitrophenoxy)-N-(2-chlorophenyl)benzenesulfonamide] | + | + | + | 
6 | + |  | O=[N+]([O-])c1ccc(Oc2c(Cl)cc(S(=O)(=O)Nc3cccc(Br)c3)cc2Cl)c(Cl)c1 [Example 159, N-(3-bromophenyl)-3,5-dichloro-4-(2-chloro-4-nitrophenoxy)benzenesulfonamide] | + | + | + | +
7 | + |  | Cc1cccc(C(C)C)c1NS(=O)(=O)c1cc(Cl)c(Oc2ccc([N+](=O)[O-])cc2Cl)c(Cl)c1 [Example 160, 3,5-dichloro-4-(2-chloro-4-nitrophenoxy)-N-(2-isopropyl-6-methylphenyl)benzene-sulfonamide] | + | + | + | +
8 | + |  | O=[N+]([O-])c1ccc(Oc2c(Cl)cc(S(=O)(=O)Nc3ccsc3)cc2Cl)c(Cl)c1 [Example 165, 3,5-dichloro-4-(2-chloro-4-nitrophenoxy)-N-3-thienylbenzenesulfonamide] | + | + | + | +
9 | + |  | COc1cccc(NS(=O)(=O)c2cc(Cl)c(Oc3ccc([N+](=O)[O-])cc3Cl)c(Cl)c2)c1F [Example 166, 3,5-dichloro-4-(2-chloro-4-nitrophenoxy)-N-(2-fluoro-3-methoxyphenyl)benzene-sulfonamide] | + | + |  | 
10 | + |  | O=[N+]([O-])c1ccc(Oc2c(Cl)cc(S(=O)(=O)Nc3cccc4cc[nH]c34)cc2Cl)c(Cl)c1 [Example 168, 3,5-dichloro-4-(2-chloro-4-nitrophenoxy)-N-1H-indol-7-ylbenzenesulfonamide] | + | + | + | +
11 | + |  | COc1ccc(NS(=O)(=O)c2cc(Cl)c(Oc3ccc([N+](=O)[O-])cc3Cl)c(Cl)c2)cc1OC [Example 170, 3,5-dichloro-4-(2-chloro-4-nitrophenoxy)-N-(3,4-dimethoxyphenyl)benzenesulfonamide] | + | + |  | 
12 | + |  | O=[N+]([O-])c1ccc(Oc2c(Cl)cc(S(=O)(=O)Nc3ccc4[nH]ccc4c3)cc2Cl)c(Cl)c1 [Example 174, 3,5-dichloro-4-(2-chloro-4-nitrophenoxy)-N-1H-indol-5-ylbenzenesulfonamide] | + | + | + | +
13 | + |  | O=[N+]([O-])c1ccc(Oc2c(Cl)cc(S(=O)(=O)Nc3cccc4c3oc3ccccc34)cc2Cl)c(Cl)c1 [Example 175, 3,5-dichloro-4-(2-chloro-4-nitrophenoxy)-N-dibenzo[b,d]furan-4-ylbenzenesulfonamide] | − | − |  | 
14 | + |  | O=[N+]([O-])c1ccc(Oc2c(Cl)cc(S(=O)(=O)Nc3cccc(-c4ccccc4)c3)cc2Cl)c(Cl)c1 [Example 179, N-biphenyl-3-yl-3,5-dichloro-4-(2-chloro-4-nitrophenoxy)benzenesulfonamide] | + | − |  | 
15 | − |  | O=[N+]([O-])c1ccc(Oc2c(Cl)cc(S(=O)(=O)Nc3cccnc3)cc2Cl)c(Cl)c1 [Example 205, 3,5-dichloro-4-(2-chloro-4-nitrophenoxy)-N-pyridin-3-ylbenzenesulfonamide] | − | − |  | 
16 | − |  | COc1ccc(NS(=O)(=O)c2cc(Cl)c(Oc3ccc([N+](=O)[O-])cc3Cl)c(Cl)c2)c(OC)n1 [Example 206, 3,5-dichloro-4-(2-chloro-4-nitrophenoxy)-N-(2,6-dimethoxypyridin-3-yl)benzene-sulfonamide] | + | + |  | 
17 | + |  | O=[N+]([O-])c1ccc(Oc2c(Cl)cc(S(=O)(=O)Nc3cccnc3Cl)cc2Cl)c(Cl)c1 [Example 207, 3,5-dichloro-4-(2-chloro-4-nitrophenoxy)-N-(2-chloropyridin-3-yl)benzenesulfonamide] | + | + |  | 
18 | + |  | CC1(C)Oc2ccc(NS(=O)(=O)c3cc(Cl)c(Oc4ccc([N+](=O)[O-])cc4Cl)c(Cl)c3)cc2NC1=O [Example 213, 3,5-dichloro-4-(2-chloro-4-nitrophenoxy)-N-(2,2-dimethyl-3-oxo-3,4-dihydro-2H-1,4-benzoxazin-6-yl)benzenesulfonamide] | + | + |  | 
19 | + |  | O=[N+]([O-])c1ccc(Oc2c(Cl)cc(S(=O)(=O)Nc3ncccn3)cc2Cl)c(Cl)c1 [Example 222, 3,5-dichloro-4-(2-chloro-4-nitrophenoxy)-N-pyrimidin-2-ylbenzenesulfonamide] | − | − |  | 
20 |  | − (2 pt) | O=[N+]([O-])c1ccc(Oc2c(Cl)cc(S(=O)(=O)NC3Cc4ccccc4C3)cc2Cl)c(Cl)c1 [Example 224, 3,5-dichloro-4-(2-chloro-4-nitrophenoxy)-N-(2,3-dihydro-1H-inden-2-yl)benzene-sulfonamide] | + | + |  | 

Row | Compound | APC Flag 8 pt [1] | APC Flag (2 pt) [1] | Cell Titer-Aqueous, HELA 6 pt (HeLa cells [2]) | Cell Titer-Aqueous, A549 6 pt (A549 cells [3]) | PAD Assay, HELA 6 pt (HeLa cells [4]) | PAD Assay, A549 6 pt (A549 cells [5])
21 | COc1ccc(N(S(=O)(=O)c2cc(Cl)c(Oc3ccc([N+](=O)[O-])cc3Cl)c(Cl)c2)S(=O)(=O)c2cc(Cl)c(Oc3ccc([N+](=O)[O-])cc3Cl)c(Cl)c2)cc1Cl [Example 155, 3,5-dichloro-N-(3-chloro-4-methoxyphenyl)-4-(2-chloro-4-nitrophenoxy)-N-(1,3-dichloro-2-(2-chloro-4-nitrophenoxy)-5-sulfonylbenzene)benzenesulfonamide] | + |  | − | − |  | +
